Source: PMC11510563 (Pharmaceutics, 2024)

Target: T1, oxytocin receptors (Homo sapiens, UniProt P30559)
T1 construct: endogenous in cells; host or cells: Hs 578T breast cancer cells
T1 sequence (P30559 1-389): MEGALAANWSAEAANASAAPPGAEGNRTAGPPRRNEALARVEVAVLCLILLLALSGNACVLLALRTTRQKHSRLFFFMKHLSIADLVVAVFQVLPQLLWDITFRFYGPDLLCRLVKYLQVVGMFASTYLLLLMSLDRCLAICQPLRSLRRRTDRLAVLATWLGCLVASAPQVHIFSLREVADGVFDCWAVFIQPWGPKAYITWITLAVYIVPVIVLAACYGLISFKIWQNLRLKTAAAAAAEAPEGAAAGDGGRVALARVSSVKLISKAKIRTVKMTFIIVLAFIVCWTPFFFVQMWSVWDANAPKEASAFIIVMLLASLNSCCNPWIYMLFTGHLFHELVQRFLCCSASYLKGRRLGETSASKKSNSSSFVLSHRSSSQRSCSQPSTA
Test: calcium fluorimetry reporter assay in Hs 578T cells
Type: cell-based
Settings: Fluo-4, L-368,899 0.1-10 μM, SR 49059 0.1 μM, tolvaptan 1 nM
Method: Twenty-four hours prior to use, Hs 578T cells were seeded in black 96-well plates (80,000 cells in 100 μL of supplemented DMEM per well). On the test day, changes in intracellular calcium ([Ca^2+]i) were measured using a Fluo-4 no wash calcium assay kit (F36206; Thermo Fisher Scientific). Briefly, medium was aspirated and replaced with 100 μL of 1× dye loading solution (Fluo-4 NW mix in 1× HBSS) containing 20 mM 4-(2-hydroxyethyl)-1piperazineethanesulfonic acid (HEPES, Sigma-Aldrich) and 2.5 mM probenecid, which prevents the active transport of Fluo-4 out of the cells. Cells were incubated for 40 min, and then mean fluorescence across each well was measured every 1.6 s for 90 s using a Flexstation 3 (Molecular Devices, Wokingham, UK) with excitation at 485 nm and emission at 525 nm.

sensitivity of oxytocin-induced [Ca^2+]i increases to the antagonist | Structure (SMILES)
sensitive to blockade | Cc1ccccc1N1CCN(S(=O)(=O)C[C@]23CC[C@H](C[C@@H]2NC(=O)[C@@H](N)CCS(C)(=O)=O)C3(C)C)CC1 [L-368,899]
not sensitive | COc1ccc(S(=O)(=O)N2c3ccc(Cl)cc3[C@](O)(c3ccccc3Cl)[C@@H]2C(=O)N2CCC[C@H]2C(N)=O)cc1OC [SR 49059]
not sensitive | Cc1ccccc1C(=O)Nc1ccc(C(=O)N2CCCC(O)c3cc(Cl)ccc32)c(C)c1 (stereo not drawn) [tolvaptan]
